From ChEMBL document CHEMBL4390697, “Ginnalin B induces differentiation markers and modulates the proliferation/differentiation balance via the upregulation of NOTCH1 in human epidermal keratinocytes” (Bioorg Med Chem, 2019)
Active and inactive are the calls of the source. No cut-off for these calls is given here.

Key:
[1] = organism: Homo sapiens; assay: (§1) Induction of keratin-10 expression in human PHK160b cells at 50 uM incubated for 48 hrs by quantitative RT-PCR analysis relative to untreated control; type: functional
[2] = Cytotoxicity against human PHK160b cells assessed as reduction in cell growth at 100 uM incubated up to 96 hrs by MTT assay; type: cell-based
[3] = Inhibition of keratin-10 expression in human PHK160b cells at 50 uM incubated for 48 hrs by quantitative RT-PCR analysis relative to untreated control; type: functional
[4] = as §1; type: functional
[5] = Cytotoxicity against human PHK160b cells assessed as reduction in cell viability incubated for 48 hrs by LDH release assay; type: cell-based
[6] = Induction of apoptosis in human PHK160b cells assessed as induction of multiple fragmented segregated bodies at 100 uM incubated for 48 hrs Hoechst 33,342 staining based fluorescent microscopy; type: cell-based
[7] = Cell cycle arrest in human PHK160b cells assessed as accumulation at G0/G1 phase at 50 uM incubated for 48 hrs by propidium iodide staining-based flow cytometry; type: functional
[8] = Cell cycle arrest in human PHK160b cells assessed as accumulation at G2/M phase at 50 uM incubated for 48 hrs by propidium iodide staining-based flow cytometry; type: functional
[9] = organism: Homo sapiens; assay: Induction of keratin-10 expression in human PHK160b cells incubated for 48 hrs by quantitative RT-PCR analysis relative to untreated control; type: functional, cell-based
[10] = organism: Homo sapiens; assay: Induction of keratin-1 expression in human PHK160b cells incubated for 48 hrs by quantitative RT-PCR analysis relative to untreated control; type: functional, cell-based
[11] = tested on: Zone of skin; assay: Induction of keratinocyte differentiation in human EPI-212 EpiDerm skin model assessed as increase in keratin-10 expression at 100 uM incubated for 7 days by DAB based immunohistochemical staining analysis (Rvb= 35.8%); type: functional
[12] = tested on: Zone of skin; assay: Induction of keratinocyte differentiation in human EPI-212 EpiDerm skin model assessed as increase in filaggrin expression at 100 uM incubated for 7 days by DAB based immunohistochemical staining analysis (Rvb= 20%); type: functional
[13] = Cytotoxicity against human PHK160b cells assessed as reduction in cell viability at 100 uM incubated for 24 hrs by MTT assay; type: cell-based
[14] = Cytotoxicity against human PHK160b cells assessed as reduction in cell viability at 10 to 1000 uM incubated for 48 hrs by LDH release assay; type: cell-based
[15] = Cell cycle arrest in human PHK160b cells assessed as accumulation at G0/G1 phase at 100 uM incubated for 48 hrs by propidium iodide staining-based flow cytometry; type: functional
[16] = Cell cycle arrest in human PHK160b cells assessed as accumulation at G2/M phase at 100 uM incubated for 48 hrs by propidium iodide staining-based flow cytometry; type: functional
[17] = Cell cycle arrest in human PHK160b cells assessed as increase in expression of p21 at 0 to 100 uM incubated for 72 hrs by RT-PCR method; type: functional
[18] = Cell cycle arrest in human PHK160b cells assessed as increase in expression of NOTCH1 at 100 uM incubated for 72 hrs by RT-PCR method relative to control; type: functional
[19] = organism: Homo sapiens; assay: Cell cycle arrest in human PHK160b cells assessed as increase in expression of p21 incubated for 72 hrs by western blot method; type: functional, cell-based
[20] = organism: Homo sapiens; assay: Cell cycle arrest in human PHK160b cells assessed as decrease in expression of cyclin D1 incubated for 72 hrs by western blot method; type: functional, cell-based
[21] = organism: Homo sapiens; assay: Cell cycle arrest in human PHK160b cells assessed as decrease in expression of cyclin E incubated for 72 hrs by western blot method; type: functional, cell-based
[22] = organism: Homo sapiens; assay: Cell cycle arrest in human PHK160b cells assessed as increase in expression of NOTCH 1 at 50 to 100 uM incubated for 72 hrs by western blot method; type: functional, cell-based
[23] = organism: Homo sapiens; assay: Induction of filaggrin expression in human PHK160b cells incubated for 48 hrs by quantitative RT-PCR analysis relative to untreated control; type: functional, cell-based
[24] = Induction of keratin-10 expression in human PHK160b cells at 100 uM incubated for 48 hrs by quantitative RT-PCR analysis relative to untreated control; type: functional
[25] = Induction of keratin-1 expression in human PHK160b cells at 100 uM incubated for 48 hrs by quantitative RT-PCR analysis relative to untreated control; type: functional
[26] = Induction of filaggrin expression in human PHK160b cells at 100 uM incubated for 48 hrs by quantitative RT-PCR analysis relative to untreated control; type: functional
[27] = Cytotoxicity against human PHK160b cells assessed as reduction in cell growth at 100 uM incubated for 24 to 96 hrs by MTT assay; type: cell-based

Question: Which Activity [1] does the source give for O=C(OC[C@H]1OC[C@H](O)[C@@H](O)[C@@H]1O)c1ccccc1 here?
Answer: inactive

Question: Which Activity [1] does the source give for OC[C@H]1OC[C@H](O)[C@@H](O)[C@@H]1O [1,5-Anhydrosorbitol] here?
Answer: inactive

Question: What about the Activity [2] of the same compound?
Answer: Non-Toxic

Question: With O=C(OC[C@H]1OC[C@H](OC(=O)c2cc(O)c(O)c(O)c2)[C@@H](OC(=O)c2cc(O)c(O)c(O)c2)[C@@H]1OC(=O)c1cc(O)c(O)c(O)c1)c1cc(O)c(O)c(O)c1 as the compound, how does the “fold change (FC)” value [3] read?
Answer: 0.64

Question: For O=C(O[C@H]1CO[C@H](CO)[C@@H](O)[C@@H]1O)c1cc(O)c(O)c(O)c1, which Activity [1] is on record?
Answer: Active

Question: With O=C(O[C@H]1[C@H](O)[C@@H](O)CO[C@@H]1CO)c1cc(O)c(O)c(O)c1 as the compound, how does the Activity [1] read?
Answer: Active

Question: With O=C(OC[C@H]1OC[C@H](O)[C@@H](O)[C@@H]1OC(=O)c1cc(O)c(O)c(O)c1)c1cc(O)c(O)c(O)c1 as the compound, how does the “fold change (FC)” value [4] read?
Answer: 2.18

Question: With COc1cc2c(c(OC)c1OC)-c1ccc(OC)c(=O)cc1[C@@H](NC(C)=O)CC2 [COLCHICINE] as the compound, how does the Activity [5] read?
Answer: Dose-dependent effect

Question: And the Activity [6]?
Answer: Toxic

Question: And the Activity [7]?
Answer: 18%

Question: And the Activity [8]?
Answer: 74.6%

Question: For O=C(O[C@H]1[C@H](O)[C@@H](OC(=O)c2cc(O)c(O)c(O)c2)CO[C@@H]1CO)c1cc(O)c(O)c(O)c1 [MAPLEXIN D], which “fold change (FC)” value [4] is on record?
Answer: 2.2

Question: Which “fold change (FC)” value [4] does the source give for O=C(OC[C@H]1OC[C@H](O)[C@@H](O)[C@@H]1O)c1cc(O)c(O)c(O)c1 [GINNALIN B] here?
Answer: 1.9

Question: And the Activity [9]?
Answer: Dose-dependent effect

Question: And the Activity [10]?
Answer: Dose-dependent effect

Question: What about the Activity [11] of the same compound?
Answer: 42.4%

Question: And the Activity [12]?
Answer: 56.6%

Question: And the Activity [13]?
Answer: Non-Toxic

Question: And the Activity [14]?
Answer: Non-Toxic

Question: What about the Activity [15] of the same compound?
Answer: 66%

Question: And the Activity [16]?
Answer: 20%

Question: What about the “fold change (FC)” value [17] of the same compound?
Answer: 1.4

Question: What about the “fold change (FC)” value [18] of the same compound?
Answer: 1.9

Question: And the Activity [19]?
Answer: Dose-dependent effect

Question: And the Activity [20]?
Answer: Dose-dependent effect

Question: What about the Activity [21] of the same compound?
Answer: Dose-dependent effect

Question: And the Activity [22]?
Answer: Active

Question: What about the Activity [23] of the same compound?
Answer: Dose-dependent effect

Question: And the “fold change (FC)” value [24]?
Answer: 1.7

Question: What about the “fold change (FC)” value [25] of the same compound?
Answer: 2.9

Question: And the “fold change (FC)” value [26]?
Answer: 5.2

Question: And the Activity [27]?
Answer: Toxic

Question: And the Activity [6]?
Answer: Non-Toxic

Question: With COc1cc(C(=O)OC[C@H]2OC[C@H](O)[C@@H](O)[C@@H]2O)cc(OC)c1OC as the compound, how does the Activity [1] read?
Answer: inactive

Question: Which Activity [1] does the source give for O=C(O[C@H]1[C@H](O)[C@@H](CO)OC[C@@H]1O)c1cc(O)c(O)c(O)c1 here?
Answer: Active
